Measurements published in a melting point compilation (Tetko et al.; mined from patent text by program, amines drawn as free bases though some values may be those of a salt).

melting point [°C]	Structure (SMILES)
183 to 185	NC(=O)CNC(=O)c1ccccc1I
194 to 195	COc1cccc(CNc2ncnc3c2sc2nc(N4CCCC4)c4c(c23)CC(C)(C)CC4)c1OC
268 to 269	CCCn1c(=O)c2[nH]c(/C=C/c3cc(C)c(OC)cc3C)nc2n(CCC)c1=O
63 to 64	Cc1oc(-c2ccccc2)nc1CCC#N
87 to 89	CC#CC(C)(C)NC(=O)C(CC)Oc1cncc(Cl)c1 (stereo unspecified)
69 to 71	CCCCCCCCCCCCc1c[nH]cn1
86 to 89	COC(=O)CCC(=O)c1cc2c(cc1Cl)CC(NC(=O)OC)CC2 (stereo unspecified)
109 to 110	O=[N+]([O-])c1ccccc1C#Cc1c(F)c(F)nc(F)c1F
145	O=Cc1ccccc1SSc1ccccc1C=O
146 to 147	Cc1cc(C)c2nc(C)c(NC(=O)Nc3cccc(C(F)(F)F)c3)c(-c3ccccc3Cl)c2c1
94 to 95	COC(=O)c1ccc2c(c1)C(c1ccccn1)=CC(C)(C)O2
147 to 148	N#Cc1ccc(Cl)c(N=Cc2ccccc2O)c1
82 to 87	CC(=O)OCCc1c([N+](=O)[O-])cc(OCc2ccccc2)c2ccccc12
154 to 155	CCCCOc1ncc(-c2ccco2)cc1-c1nc2c(CC)n(CCOC)nc2c(=O)[nH]1
314 to 317	Cn1cc2c(C3C(=O)Nc4ccc(Br)cc43)nc(NCCc3cccnc3)nc2n1 (stereo unspecified)
249 to 250	O=c1nc(N2CCc3ccccc32)sc2ncccc12
249 to 253	CC(C)(O)c1nc(-c2ccc(-c3cnc4[nH]c(=O)n(CC5CCOCC5)c4n3)cc2)n[nH]1
86	CCCCc1oc2ccc(NS(C)(=O)=O)cc2c1C(=O)c1ccc(OCCN(CCCC)CCCC)cc1
272 to 273	O=C(Nc1ccnnc1)Nc1cc(F)cc(F)c1
241 to 244	O=C(c1ccccc1)N1CCc2[nH]c3cccc(-c4ccccc4F)c3c2CC1
137 to 139	CCN(CC)CCn1c(O)nc2cc(Cl)c(Cl)nc21

melting point [°C]	Structure (SMILES)
86 to 88	Cn1c(=O)c2c(ncn2CCCCCC#N)n(C)c1=O
161 to 163	O=C(O)C1Oc2cc(Cl)c(S(=O)(=O)c3cccc(F)c3)cc2O1 (stereo unspecified)
110 to 112	C=C1C(=O)c2ccccc2OC1c1ccc(N(C)C)cc1 (stereo unspecified)
142	OC1(c2ccccc2)CCN(CCC2COc3ccccc3O2)CC1 (stereo unspecified)
94	COC(=O)C1CCN(c2ccc(Cl)c(CBr)c2Cl)C1 (stereo unspecified)
122 to 124	CC1(O)CC(=O)OC(C=Cc2cccc(OCc3ccccc3)c2)C1 (stereo unspecified)
65 to 66	ClCCCOc1ccc(-c2ccccc2)cc1
61 to 62	Cc1ccc(C)c(SCCCC(=O)O)c1
103	COC(=O)c1cc(OCC=C(Cl)Cl)cc(Cl)c1OC
155 to 157	CCOC(=O)Cc1c(C)n(Cc2csc(-c3ccc(Cl)cc3)n2)c2ccc(OCc3csc(-c4ccccc4)n3)cc12
83 to 84	CNc1nn(-c2ccccc2)cc1C=O
106 to 107	CC(=O)c1cc(Cn2ccnc2)ccc1O
101 to 102	CCc1cccc(C)c1N(CN1CCOC1=O)C(=O)CCl
191 to 192	Cc1c(NC(=O)c2ccc(OC[C@@H]3CCCO3)cc2)ccc2[nH]c(CNC3CCCC3)cc12
87	O=c1[nH]c(=O)n(C2CC(F)C(CO)O2)cc1C(Cl)=CI (stereo unspecified)
203 to 205	CCCc1cnc(NC(=O)C2c3ccccc3Oc3ccccc32)o1
> 210	O=C1N(CO)c2cccc(Cl)c2C1(CO)c1cc2c(cc1O)OCO2 (stereo unspecified)
> 250	O=C(Nc1nccs1)c1ccc(CN2C(=O)C3(COc4cc5c(cc43)CCO5)c3ccccc32)cc1 (stereo unspecified)
165 to 166	CC(N)c1ccc(NS(C)(=O)=O)c(Sc2ccc(F)cc2F)c1 (stereo unspecified)
175 to 176	Cc1c(NC(=O)CC(C)(C)C)cc2c(c1C)OC(C)(C)C2=O
